Data reported in US11446279B2 (priority 2017, dated 2022).
In brackets after ≈: the same amount, converted by molar mass. Where two headings read alike, the source gives them in different places.

Experiments:
A. baumannii (Sensitive) = experiment: MIC against A. baumannii (Sensitive); assay type: cell-based, Acinetobacter baumannii
E. coli (KAN) = experiment: microbe, parasite or virus in culture; assay type: cell-based, Escherichia coli
E. coli SFGH 207 = experiment: MIC against E. coli SFGH 207; assay type: cell-based, Escherichia coli
P. aeruginosa SFGH 266 = experiment: MIC against P. aeruginosa SFGH 266; assay type: cell-based, Pseudomonas aeruginosa
E. coli (AMP) = experiment: MIC against E. coli (AMP); assay type: cell-based, Escherichia coli
P. aeruginosa SFGH 427 = experiment: MIC against P. aeruginosa SFGH 427; assay type: cell-based, Pseudomonas aeruginosa
[1] = test system: drug-resistant GNBs such as Pseudomonas aeruginosa, Escherichia coli, and Acinetobacter baumannii; experiment: Growth inhibition of drug-resistant GNBs; assay type: cell-based; settings: in words; E. coli species, A. baumannii, P. aeruginosa / gram-negative bacteria
A. baumannii (Resistant) = experiment: MIC against A. baumannii (Resistant); assay type: cell-based, Acinetobacter baumannii
MRSA = experiment: MIC against MRSA; assay type: cell-based, Methicillin-resistant Staphylococcus aureus
E. coli ATCC25922 = experiment: MIC against E. coli ATCC25922; assay type: cell-based, Escherichia coli
[2] = range stated jointly for MRSA and E. coli (ATCC 25922)

## O=[N+]([O-])c1sccc1S(=O)(=O)F [compound 1, 2-nitrothiophene-3-sulfonyl fluoride]
A. baumannii (Sensitive)
  MICs: 21 µg/mL
E. coli (KAN); E. coli (KAN)
  MICs: 0.66 µg/mL
E. coli SFGH 207
  MICs: 42 µg/mL
P. aeruginosa SFGH 266
  MICs: 42 µg/mL
E. coli (AMP)
  MICs: 10.6 µg/mL
P. aeruginosa SFGH 427
  MICs: 84 µg/mL
[1]
  antibacterial activity: active
A. baumannii (Resistant)
  MICs: 42 µg/mL
MRSA; MRSA
  MICs: 5.28 µg/mL
MRSA; [2]
  MIC: 1 to 5 µg/mL
E. coli ATCC25922; E. coli ATCC25922
  MICs: 1.32 µg/mL
E. coli ATCC25922; [2]
  MIC: 1 to 5 µg/mL

## O=C1CN(/N=C/c2ccc([N+](=O)[O-])o2)C(=O)N1 [nitrofurantoin 7, nitrofurantoin, reference compound]
A. baumannii (Sensitive); Acinetobacter baumannii
  MIC: > 95 µg/mL
E. coli (KAN); Escherichia coli, read-out: MICs
  MIC: 0.37 µg/mL (≈ 1.55 µM)
E. coli SFGH 207; Escherichia coli, SFGH207
  MIC: 6 µg/mL (≈ 25.2 µM)
P. aeruginosa SFGH 266; Pseudomonas aeruginosa, SFGH266
  MIC: > 95 µg/mL
E. coli (AMP); Escherichia coli
  MIC: 6 µg/mL (≈ 25.2 µM)
P. aeruginosa SFGH 427; Pseudomonas aeruginosa, SFGH427
  MIC: > 95 µg/mL
A. baumannii (Resistant); Acinetobacter baumannii
  MIC: > 95 µg/mL
MRSA; Staphylococcus aureus, ATCC 25922 / MRSA, range stated jointly for MRSA and E. coli (ATCC 25922), read-out: MIC
  MIC: 5 to 12 µg/mL (≈ 21 to 50.4 µM)
MRSA; Staphylococcus aureus, MRSA, read-out: MICs
  MIC: 12 µg/mL (≈ 50.4 µM)
E. coli ATCC25922; Escherichia coli, ATCC25922, range stated jointly for MRSA and E. coli (ATCC 25922), read-out: MIC
  MIC: 5 to 12 µg/mL (≈ 21 to 50.4 µM)
E. coli ATCC25922; Escherichia coli, E. coli ATCC25922, read-out: MICs
  MIC: 3 µg/mL (≈ 12.6 µM)
